Results published in US20240408043A1, “COMPOSITIONS AND METHODS FOR USE IN INCREASING MOTIVATIONAL PERFORMANCE” (SOCIETE DES PRODUITS NESTLE S.A., priority 2021, published 2024).
“Also recorded” adds a separate entry of the source.

Key:
[1] = tested on: GSH in the nucleus accumbens; assay: GSH level in the nucleus accumbens after NAC in the drinking water; format: in vivo, rat; conditions: adult male rats, NAC 500 mg/L in the drinking water for 2 weeks, FIG. 1B
Adult male Wistar rats = assay: Progressive ratio test of motivated behaviour (operant conditioning, nose poke for saccharine pellets); format: in vivo, rat; conditions: NAC 500 mg/L in the drinking water for 2 weeks, two-hour session
Protocol: Adult male outbred rats were trained for nose poke for saccharine food pellets for one week on an FR1 training schedule as described in the methods below. […] Following 2 weeks of treatment, rats were given an additional 2 training sessions, followed 24 h later by a progressive ratio session designed to test their motivated behaviour. During this progressive ratio session, rats have to increasingly work harder to earn the saccharine pellet, as described in the methods below. […] The breakpoint is defined as the last step in the session where the animals received a reward and is a direct correlate of their willingness to exert an effort. […] Animals: Adult male Wistar rats (Charles Rivers, Saint-German-Nuelle, France) weighing 250-275 gr at the beginning of the experiment were used for all experiments. Rats were individually housed in cages in housing colonies on a 12:12 h reversed light:dark cycle with lights on at 20:00, and lights-off at 8:00. Food and water were available adlibitum. Following a week of acclimatization to the animal facilities, rats were handled for 2 min per day for three days prior to the start of the experiments, in order to habituate to the experimenters. Operant conditioning: Ten days after introduction to the reversed day-night cycle, rats started training in a fixed ratio 1 reinforcement schedule (FR1). Operant chambers (Coulbourn Instruments, Holliston, MA, US), placed in sound attenuating cubicles, were equipped with a grid, underneath which a tray with standard bedding material was placed for collection of feces and urine after each training session. Each chamber had one food tray and two ports placed on either side of the tray. A cue light was placed in each port and the food tray, whereas a house light was placed above the food tray. […] Correct nosepokes (i.e. nosepokes in the active port and outside the timeout period, thus resulting in food delivery) were calculated to evaluate behavioural performance, as well as the number of acquired rewards and the last completed ratio (breakpoint).

CC(=O)N[C@@H](CS)C(=O)O [NAC, N-acetyl cysteine]
GSH in the nucleus accumbens compared to vehicle treated rats [1]: enhance GSH levels; also recorded: enhanced GSH | nose pokes for the reward (correct nosepokes) in progressive ratio session, compared to vehicle (Adult male Wistar rats; FIG. 1C): significantly more nose pokes | number of rewards earned in progressive ratio session, compared to vehicle (Adult male Wistar rats; FIG. 1D): greater number of rewards; also recorded: more overall rewards | breakpoint (last completed ratio) in progressive ratio session, compared to vehicle (Adult male Wistar rats; FIG. 1E): significantly higher breakpoint level
